Results reported in PubChem BioAssay AID1845197 (Molecular Pharmacology Branch, DTP, NCI, 2023).
“And” between values parts separate entries of the source, which are not always exact repeats. Identical values can stand only once.

Tested on: 349418-098-R tumor spheroid viability
Test: Anticancer human tumor 349418-098-R patient-derived lung adenocarcinoma cell line growth inhibition
Settings: spheroids with HUVEC and MSC; for viability, T/C: stronger effect = lower value; active = viability on the fitted dose curve at most 10% of control; inactive = the rest
How it was run: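 Complex spheroids of malignant cells with endothelial cells and mesenchymal stem cells; agents alone or combined, from near clinical Cmax (or 10 microM if unknown) down in half-log steps, 0.25% DMSO final.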
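Also: spheroids exposed to compound for 7 days before measurement.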
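For viability, T/C in this document: percent of vehicle control viability with 100% = DMSO-treated spheroids.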

COc1cc(C)[nH]c(=O)c1CN1CCc2c(Cl)cc(C(OC)C3COC3)c(Cl)c2C1=O (centres undefined)
> 10 µM: IC50 (curve of compound)
inactive: viability, T/C (compound 0.0316 µM) 113% and 98.1% and 118% | viability, T/C (compound 0.1 µM) 115% and 96.7% and 122% | viability, T/C (compound 0.316 µM) 108% and 91.9% and 112% | viability, T/C (compound 1 µM) 104% and 92% and 112% | viability, T/C (compound 3.16 µM) 101% and 79.7% and 118% | viability, T/C (compound 10 µM) 96.4% and 83.6% and 103%

[2H]c1nc(C)nc([2H])c1-c1cc(NC[C@@H](C)c2cccc3c(C(=O)NC)ccnc23)ncn1 + Cn1nnc2c(C(N)=O)ncn2c1=O
> 10 µM: IC50 (curve of first compound, second compound 1 µM) | IC50 (curve of first compound, second compound 3.16 µM) | IC50 (curve of first compound, second compound 10 µM) | IC50 (curve of first compound, second compound 31.6 µM) | IC50 (curve of first compound, second compound 100 µM)
inactive: viability, T/C (second compound 1 µM, first compound 0.0316 µM) 98.9% | viability, T/C (second compound 1 µM, first compound 0.1 µM) 103% | viability, T/C (second compound 1 µM, first compound 0.316 µM) 98.7% | viability, T/C (second compound 1 µM, first compound 1 µM) 97.9% | viability, T/C (second compound 1 µM, first compound 3.16 µM) 102% | viability, T/C (second compound 1 µM, first compound 10 µM) 97.3% | viability, T/C (second compound 3.16 µM, first compound 0.0316 µM) 109% | viability, T/C (second compound 3.16 µM, first compound 0.1 µM) 105% | viability, T/C (second compound 3.16 µM, first compound 0.316 µM) 104% | viability, T/C (second compound 3.16 µM, first compound 1 µM) 98.3% | viability, T/C (second compound 3.16 µM, first compound 3.16 µM) 104% | viability, T/C (second compound 3.16 µM, first compound 10 µM) 103% | viability, T/C (second compound 10 µM, first compound 0.0316 µM) 104% | viability, T/C (second compound 10 µM, first compound 0.1 µM) 96.6% | viability, T/C (second compound 10 µM, first compound 0.316 µM) 102% | viability, T/C (second compound 10 µM, first compound 1 µM) 106% | viability, T/C (second compound 10 µM, first compound 3.16 µM) 101% | viability, T/C (second compound 10 µM, first compound 10 µM) 104% | viability, T/C (second compound 31.6 µM, first compound 0.0316 µM) 97.8% | viability, T/C (second compound 31.6 µM, first compound 0.1 µM) 110% | viability, T/C (second compound 31.6 µM, first compound 0.316 µM) 101% | viability, T/C (second compound 31.6 µM, first compound 1 µM) 104% | viability, T/C (second compound 31.6 µM, first compound 3.16 µM) 103% | viability, T/C (second compound 31.6 µM, first compound 10 µM) 104% | viability, T/C (second compound 100 µM, first compound 0.0316 µM) 106% | viability, T/C (second compound 100 µM, first compound 0.1 µM) 109% | viability, T/C (second compound 100 µM, first compound 0.316 µM) 106% | viability, T/C (second compound 100 µM, first compound 1 µM) 106% | viability, T/C (second compound 100 µM, first compound 3.16 µM) 108% | viability, T/C (second compound 100 µM, first compound 10 µM) 110%

Cn1ncnc1[C@H]1c2n[nH]c(=O)c3cc(F)cc(c23)N[C@@H]1c1ccc(F)cc1
inactive: viability, T/C (compound 0.00949 µM) 98.5% and 97% and 84.1% | viability, T/C (compound 0.03 µM) 96.8% and 96.3% and 103% | viability, T/C (compound 0.0949 µM) 95.9% and 95.6% and 97.9% | viability, T/C (compound 0.3 µM) 92.7% and 92.3% and 93.1% | viability, T/C (compound 0.949 µM) 93.1% and 85% and 89.9%
1.72 µM and 1.64 µM and 1.7 µM: IC50 (curve of compound)
9.44% and 11.2% and 10.9%: viability, T/C (compound 3 µM)
